Patent US9980509B2, “Modification of bacterial profile of tobacco” (R.J. REYNOLDS TOBACCO COMPANY, priority 2013, dated 2018)

Experiments:
[1] = tested on: enteric bacteria (gram negative bacteria); experiment: Enteric bacteria counts (violet red bile agar) on field-treated tobacco leaf; assay type: in vivo; settings: dark-air cured tobacco treated five hours prior to harvest; based on total bacteria counts before and after treatment
Description: (§1) Dark-air cured tobacco is treated five hours prior to harvest with one or more of a probiotic bacteria solution, and enzyme solution, and/or a 3% sodium chloride salt solution. The solution is applied using a backpack sprayer. Solutions are based on a 100 gallon solution per acre, using recommended plant spacings and dose per plant is provided below.
(§2) The treated tobacco is harvested and mid-stalk leaf samples are analyzed for total bacteria counts, enteric bacteria counts, and Lactobacillus counts. Ten grams of each treated tobacco sample is placed in Butterfields Phosphate Buffer and diluted 10^−2 to 10^−8 times with water. The treated tobacco sample dilutions are applied to plate count agar (PCA) for total aerobic bacteria counts, to violet red bile agar (VRBA) for gram negative bacteria counts, and to MRS for anaerobic (Lactobacillus) counts. The number of bacterial colonies, as visualized under magnification, are counted to estimate the total number of colony-forming units per gram, CFU/g.

Lactobacillus = Lactobacillus (anaerobic) counts on MRS from field-treated tobacco leaf; assay type: in vivo
Description: as §1, §2

total aerobic bacteria = experiment: Total bacteria counts (plate count agar) on field-treated tobacco leaf; assay type: in vivo; settings: dark-air cured tobacco treated five hours prior to harvest; based on total bacteria counts before and after treatment
Description: as §1, §2

Dark tobacco plants = settings: for NNN content relative to the level of quantification: potassium chloride-treated samples 1, 2, 3, 5, and 6; for NNN content relative to the level of quantification / NAT content relative to the level of quantification: all potassium sulfate-treated samples; for NAT content relative to the level of quantification: potassium chloride-treated samples 3, 5, and 6
Description: A first, 0.5 acre unplanted plot of soil was treated with a nitrogen-containing fertilizer comprising urea (N—P—K: 46-0-0) at a rate of 150 pounds per acre and a fertilizer incorporating diammonium phosphate and phosphorus (N—P—K: 18-46-0) at a rate of 180 pounds per acre by broadcast application. […] All fertilizer applications were incorporated into the soil after application.
A second, 0.5 acre unplanted plot of soil was treated with a nitrogen-containing fertilizer comprising urea (N—P—K: 46-0-0) at a rate of 150 pounds per acre and a fertilizer incorporating diammonium phosphate and phosphorus (N—P—K: 18-46-0) at a rate of 180 pounds per acre by broadcast application. The following day, a potassium chloride fertilizer (N—P—K: 0-0-60) was broadcast applied at 180 pounds per acre. All fertilizer applications were incorporated into the soil after application.
Dark tobacco plants were independently grown and were transplanted as seedlings (approximately 6-10 inches in length) to both plots (with 2450 plants per fertilized plot) four days after application of the potassium sources to the soil. […] The tobacco plants from both plots were harvested about three months after UAN treatment, and the harvested plants were moved to a traditional 1-acre air-curing barn. The plants were cured in the barn for about a month and a half.
After curing the plants, the leaves were removed from the stalks. The fourth leaf from the upper stalk position of six plants from each plot was taken for analysis. Each of these twelve leaves was prepared by removing the mid-rib stem from the leaf lamina.
The lamina was milled and the content of certain components was evaluated by liquid chromatography-mass spectrometry (LCMS). In particular, the leaves were analyzed in triplicate for TSNA content (namely, NNN, NNK, NAT, and NAB content).

Row | SMILES | enteric bacteria reduction after treatment [1] | Lactobacillus increase after treatment (Lactobacillus; dark-air cured tobacco treated five hours prior to harvest, based on total bacteria counts before and after treatment) | Lactobacillus bacteria change after treatment (Lactobacillus; treated tobacco material, Example 1) | total bacteria reduction after treatment (total aerobic bacteria) | NAT content compared with potassium sulfate treatment (Dark tobacco plants; all cured leaf samples tested) | NNN content compared with potassium sulfate treatment (Dark tobacco plants; all cured leaf samples tested) | average decrease NAT with respect to the potassium sulfate-treated samples (Dark tobacco plants; cured leaf samples) | average decrease NNN with respect to the potassium sulfate-treated samples (Dark tobacco plants; cured leaf samples) | TSNA levels, particularly NNN and NNK, compared with leaves from potassium sulfate-treated soil (Dark tobacco plants; cured leaves) | NNN content relative to the level of quantification (Dark tobacco plants) | NAT content relative to the level of quantification (Dark tobacco plants)
1 | [Cl-].[Na+] [3% NaCl solution, sodium chloride] | 76% | greater than 400% | significant increase | 94% |  |  |  |  |  |  | 
2 | [Cl-].[K+] [Potassium Chloride, potassium chloride] |  |  |  |  | significant decreases | significant decreases | about 77% | about 69% | significantly lower | below the level of quantification | below the level of quantification
3 | O=S(=O)([O-])[O-].[K+].[K+] [Potassium Sulfate, potassium sulfate, reference compound] |  |  |  |  |  |  |  |  |  | well above such levels | well above such levels
